Experimental data reported in patent publication US11179412B2, “Methods of treating conditions involving elevated inflammatory response” (University of Pittsburgh—Of the Commonwealth System of …, priority 2017, dated 2021).
Structures can show the parent of a compound that is named as a salt.

What follows are compounds tested on STING activation (IFNβ release) in iBMDMs (assay: IFNβ release ELISA after STING ligand (or LPS) stimulation, iBMDMs). Details: not given.
Assay type: cell-based, mouse
Outline: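 iBMDMs were stimulated with a STING ligand such as 3′3′-cGAMP, or with LPS. Secreted IFNβ in culture medium was measured by commercial mouse or human IFNβ ELISA.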

Structure (SMILES) | fold increase in IFN-β release
Cc1cccc(-c2[nH]ncc2-c2ccc3ncccc3n2)n1 [RepSox] | 0.99 fold

Same assay, conditions: iBMDMs; 3′3′-cGAMP 10 μg/ml, 16 hours; compound 10 μM

Structure (SMILES) | fold increase in IFN-β release
O=C(Nc1cccnc1)N1CCC(Cc2cccc(Oc3ccc(C(F)(F)F)cn3)c2)CC1 [PF-3845] | 2.14 fold
CN(c1ncccc1CNc1nc(Nc2ccc3c(c2)CC(=O)N3)ncc1C(F)(F)F)S(C)(=O)=O [PF-562271] | 0.21 fold
CS(=O)(=O)c1cccc(CNc2nc(Nc3ccc4c(c3)CCC(=O)N4)ncc2C(F)(F)F)c1 [PF-573228] | 0.87 fold
OCCn1cc(-c2cnc3nnn(Cc4ccc5ncccc5c4)c3n2)cn1 [PF-04217903] | 1.49 fold
CCc1cncnc1N1CCN(Cc2nc3ccc(C(F)(F)F)cc3[nH]2)CC1 [PF-4708671] | 2.12 fold
Cc1cnc(-c2cc(N3CCN(C(=O)CCS(C)(=O)=O)CC3)ncc2Cl)c(C)c1 [PF-5274857] | 0.16 fold
COc1ccccc1S(=O)(=O)Nc1ccc2c(c1)CN(C)C(=O)N2 [PFI-1 (PF-6405761)] | 0.52 fold
O=C(/C=C/c1ccc2ccccc2n1)c1ccncc1 [PFK15] | 0.68 fold
Cc1[nH]c(/C=C2\C(=O)Nc3ccc(S(=O)(=O)Cc4c(Cl)cccc4Cl)cc32)c(C)c1C(=O)N1CCC[C@@H]1CN1CCCC1 [PHA-665752] | 0.43 fold
CC(C)CC(=O)Nc1[nH]nc2c1CN(C(=O)C1CCN(C)CC1)C2(C)C [PHA-793887] | 2.28 fold
CCCc1ccc(OCC(=O)N(Cc2nc(-c3cccnc3)no2)C(C)C)cc1 [PI-1840] | 0.60 fold
COc1cc(OC)c(NC(=O)Nc2cc(C)on2)cc1Cl [PNU-120596] | 0.12 fold
CC(C)(C)n1nc(-c2ccc(Cl)cc2)c2c(N)ncnc21 [PP2] | 0.14 fold
N#CSc1cc(SC#N)c(N)nc1N [PR-619] | 0.79 fold
Br.COc1cc(Br)c(Nc2nc(-c3c(C)nc4ncccn34)cs2)c(Br)c1 [PTC-209 HBr] | 0.27 fold
COc1cc(Br)c(Nc2nc(-c3c(C)nc4ncccn34)cs2)c(Br)c1 [PTC-209] | 2.11 fold
CC(C)NCCCn1c(Sc2cc3c(cc2I)OCO3)nc2c(N)ncnc21 [PU-H71] | 1.13 fold
CCOC(=O)c1ccc(N2NC(=O)/C(=C/c3ccc([N+](=O)[O-])o3)C2=O)cc1 [PYR-41] | 1.13 fold
C1=C/COCc2cc(ccc2OCCN2CCCC2)Nc2nccc(n2)-c2cccc(c2)COC/1 [Pacritinib (SB1518), Pacritinib] | 1.58 fold
CC(=O)c1c(C)c2cnc(Nc3ccc(N4CCNCC4)cn3)nc2n(C2CCCC2)c1=O [Palbociclib (PD-0332991) HCl, Palbociclib] | 0.94 fold
CC(=O)O[C@H]1C[C@@H]2CC[C@@H]3[C@H](CC[C@@]4(C)[C@H]3C[C@H]([N+]3(C)CCCCC3)[C@@H]4OC(C)=O)[C@@]2(C)C[C@@H]1[N+]1(C)CCCCC1.[Br-].[Br-] [Pancuronium dibromide] | 1.20 fold
Cc1[nH]c2ccccc2c1CCNCc1ccc(/C=C/C(=O)NO)cc1 [Panobinostat (LBH589), Panobinostat] | 0.61 fold
Oc1cc(O)cc(/C=C/c2ccc(O)c(O)c2)c1 [Piceatannol] | 0.42 fold

Structure (SMILES) | fold increase in IFN-β release
COc1ccc(-c2nc3ccc(C4=NNC(=O)CC4C)cc3[nH]2)cc1 (stereo not shown) [Pimobendan] | 1.79 fold
O=C(NNc1ccccc1)c1ccncc1 [PluriSln #1 (NSC 14613)] | 0.62 fold
Nc1cccc2c1C(=O)N(C1CCC(=O)NC1=O)C2=O (stereo not shown) [Pomalidomide] | 2.12 fold
C#CCC(Cc1cnc2nc(N)nc(N)c2n1)c1ccc(C(=O)N[C@@H](CCC(=O)O)C(=O)O)cc1 (stereo partly shown) [Pralatrexate] | 4.31 fold
CCCN[C@H]1CCc2nc(N)sc2C1 [Pramipexole] | 2.07 fold
CC(C)NCC(O)COc1cccc2ccccc12 (stereo not shown) [Propranolol HCl] | 2.07 fold
CCc1nc(N)nc(N)c1-c1ccc(Cl)cc1 [Pyrimethamine] | 5.22 fold
CC(C)(C)c1cc(NC(=O)Nc2ccc(-c3cn4c(n3)sc3cc(OCCN5CCOCC5)ccc34)cc2)no1 [Quizartinib (AC220), Quizartinib] | 0.91 fold
O=C(NCc1cccc(O)c1)Nc1nc(-c2ccncc2)cs1 [RKI-1447] | 2.41 fold
Cc1nnc(C(=O)NC(C)(C)c2nc(C(=O)NCc3ccc(F)cc3)c(O)c(=O)n2C)o1 [Raltegravir (MK-0518), Raltegravir] | 4.80 fold
CCC(=O)NCC[C@@H]1CCc2ccc3c(c21)CCO3 [Ramelteon] | 0.56 fold
CNC(=C[N+](=O)[O-])NCCSCc1ccc(CN(C)C)o1 [Ranitidine] | 2.87 fold
C#CCN[C@@H]1CCc2ccccc21 [Rasagiline Mesylate] | 1.77 fold
O=C(NC(Cc1cc(=O)[nH]c2ccccc12)C(=O)O)c1ccc(Cl)cc1 (stereo not shown) [Rebamipide] | 2.54 fold
COc1cc(F)c(F)c(Nc2ccc(I)cc2F)c1NS(=O)(=O)C1(C[C@H](O)CO)CC1 [Refametinib (RDEA119, Bay 86-9766), Refametinib] | 0.64 fold
CO[C@H]1C[C@@H]2CC[C@@H](C)[C@@](O)(O2)C(=O)C(=O)N2CCCC[C@H]2C(=O)O[C@H]([C@H](C)C[C@@H]2CC[C@@H](OP(C)(C)=O)[C@H](OC)C2)CC(=O)[C@H](C)/C=C(\C)[C@@H](O)[C@@H](OC)C(=O)[C@H](C)C[C@H](C)/C=C/C=C/C=C/1C [Ridaforolimus (Deforolimus, MK-8669), Ridaforolimus] | 0.58 fold
COc1cc(OC)c(/C=C/S(=O)(=O)Cc2ccc(OC)c(NCC(=O)O)c2)c(OC)c1 [Rigosertib (ON-01910), Rigosertib] | 0.96 fold
Cc1c(C(=O)NN2CCCCC2)nn(-c2ccc(Cl)cc2Cl)c1-c1ccc(Cl)cc1 [Rimonabant] | 0.81 fold
O=C(NC[C@H]1CN(c2ccc(N3CCOCC3=O)cc2)C(=O)O1)c1ccc(Cl)s1 [Rivaroxaban] | 0.54 fold
CN(C)CCc1c[nH]c2ccc(Cn3cncn3)cc12 [Rizatriptan Benzoate] | 2.85 fold
COc1cc(C(=O)NC2CCN(C)CC2)ccc1Nc1ncc2c(n1)N(C1CCCC1)CC(F)(F)C(=O)N2C [Ro3280] | 2.16 fold
COc1ccc(C2CNC(=O)C2)cc1OC1CCCC1 (stereo not shown) [Rolipram] | 1.85 fold
